# Measured values published in ChEMBL document CHEMBL3112480, “γ-Alkylidene-γ-lactones and isobutylpyrrol-2(5H)-ones analogues to rubrolides as inhibitors of biofilm formation by gram-positive and gram-negative bacteria” (Bioorg Med Chem Lett, 2014).
# Tests used:
# Staphylococcus aureus [1] = test: Antibacterial activity against Staphylococcus aureus ATCC 25923 assessed as effect on planktonic growth at 5.5 ug/ml after 20 hrs relative to control; format: functional
# Staphylococcus aureus [2] = test: Antibacterial activity against Staphylococcus aureus ATCC 25923 assessed as effect on planktonic growth at 10.9 ug/ml after 20 hrs relative to control; format: functional
# Streptococcus mutans [3] = test: Antibacterial activity against Streptococcus mutans ATCC 25175 assessed as effect on planktonic growth at 87.5 ug/ml after 20 hrs relative to control; format: functional
# Staphylococcus aureus [4] = test: Antibacterial activity against Staphylococcus aureus ATCC 25923 assessed as effect on planktonic growth at 43.8 ug/ml after 20 hrs relative to control; format: functional
# Pseudomonas aeruginosa [5] = test: Antibacterial activity against Pseudomonas aeruginosa ATCC 27853 assessed as effect on planktonic growth at 87.5 ug/ml after 20 hrs relative to control; format: functional
# Staphylococcus aureus [6] = test: Antibacterial activity against Staphylococcus aureus ATCC 25923 assessed as effect on planktonic growth at 21.9 ug/ml after 20 hrs relative to control; format: functional
# Pseudomonas aeruginosa [7] = test: Antibacterial activity against Pseudomonas aeruginosa ATCC 27853 assessed as effect on planktonic growth at 0.68 ug/ml after 20 hrs relative to control; format: functional
# Pseudomonas aeruginosa [8] = test: Antibacterial activity against Pseudomonas aeruginosa ATCC 27853 assessed as effect on planktonic growth at 1.37 ug/ml after 20 hrs relative to control; format: functional
# Staphylococcus aureus [9] = test: Antibacterial activity against Staphylococcus aureus ATCC 25923 assessed as effect on planktonic growth at 0.17 ug/ml after 20 hrs relative to control; format: functional
# [10] = system: Staphylococcus epidermidis; test: Antibacterial activity against Staphylococcus epidermidis ATCC 35547 assessed as effect on planktonic growth at 21.9 ug/ml after 20 hrs relative to control; format: functional
# Pseudomonas aeruginosa [11] = test: Antibacterial activity against Pseudomonas aeruginosa ATCC 27853 assessed as effect on planktonic growth at 2.73 ug/ml after 20 hrs relative to control; format: functional
# Streptococcus mutans [12] = test: Antibacterial activity against Streptococcus mutans ATCC 25175 assessed as effect on planktonic growth at 10.9 ug/ml after 20 hrs relative to control; format: functional
# [13] = system: Staphylococcus epidermidis; test: Antibacterial activity against Staphylococcus epidermidis ATCC 35547 assessed as effect on planktonic growth at 0.34 ug/ml after 20 hrs relative to control; format: functional
# Pseudomonas aeruginosa [14] = test: Antibacterial activity against Pseudomonas aeruginosa ATCC 27853 assessed as effect on planktonic growth at 0.17 ug/ml after 20 hrs relative to control; format: functional
# [15] = system: Staphylococcus epidermidis; test: Antibacterial activity against Staphylococcus epidermidis ATCC 35547 assessed as effect on planktonic growth at 5.5 ug/ml after 20 hrs relative to control; format: functional
# [16] = system: Staphylococcus epidermidis; test: Antibacterial activity against Staphylococcus epidermidis ATCC 35547 assessed as inhibition of biofilm formation after 20 hrs by crystal-violet staining method; format: functional, organism-based; settings: for IC50: ATCC 35547, 20 h
# Streptococcus mutans [17] = test: Antibacterial activity against Streptococcus mutans ATCC 25175 assessed as effect on planktonic growth at 5.5 ug/ml after 20 hrs relative to control; format: functional
# [18] = system: Staphylococcus epidermidis; test: Antibacterial activity against Staphylococcus epidermidis ATCC 35547 assessed as effect on planktonic growth at 43.8 ug/ml after 20 hrs relative to control; format: functional
# Streptococcus mutans [19] = test: Antibacterial activity against Streptococcus mutans ATCC 25175 assessed as effect on planktonic growth at 21.9 ug/ml after 20 hrs relative to control; format: functional
# [20] = system: Staphylococcus epidermidis; test: Antibacterial activity against Staphylococcus epidermidis ATCC 35547 assessed as effect on planktonic growth at 10.9 ug/ml after 20 hrs relative to control; format: functional
# Pseudomonas aeruginosa [21] = test: Antibacterial activity against Pseudomonas aeruginosa ATCC 27853 assessed as effect on planktonic growth at 21.9 ug/ml after 20 hrs relative to control; format: functional
# Streptococcus mutans [22] = test: Antibacterial activity against Streptococcus mutans ATCC 25175 assessed as effect on planktonic growth at 2.73 ug/ml after 20 hrs relative to control; format: functional
# Staphylococcus aureus [23] = test: Antibacterial activity against Staphylococcus aureus ATCC 25923 assessed as effect on planktonic growth at 0.34 ug/ml after 20 hrs relative to control; format: functional
# Pseudomonas aeruginosa [24] = test: Antibacterial activity against Pseudomonas aeruginosa ATCC 27853 assessed as effect on planktonic growth at 43.8 ug/ml after 20 hrs relative to control; format: functional
# [25] = system: Staphylococcus epidermidis; test: Antibacterial activity against Staphylococcus epidermidis ATCC 35547 assessed as effect on planktonic growth at 2.73 ug/ml after 20 hrs relative to control; format: functional
# [26] = system: Staphylococcus epidermidis; test: Antibacterial activity against Staphylococcus epidermidis ATCC 35547 assessed as effect on planktonic growth at 1.37 ug/ml after 20 hrs relative to control; format: functional
# Streptococcus mutans [27] = test: Antibacterial activity against Streptococcus mutans ATCC 25175 assessed as effect on planktonic growth at 0.17 ug/ml after 20 hrs relative to control; format: functional
# [28] = system: Staphylococcus epidermidis; test: Antibacterial activity against Staphylococcus epidermidis ATCC 35547 assessed as effect on planktonic growth at 0.68 ug/ml after 20 hrs relative to control; format: functional
# Streptococcus mutans [29] = test: Antibacterial activity against Streptococcus mutans ATCC 25175 assessed as effect on planktonic growth at 0.34 ug/ml after 20 hrs relative to control; format: functional
# Streptococcus mutans [30] = test: Antibacterial activity against Streptococcus mutans ATCC 25175 assessed as effect on planktonic growth at 1.37 ug/ml after 20 hrs relative to control; format: functional
# Staphylococcus aureus [31] = test: Antibacterial activity against Staphylococcus aureus ATCC 25923 assessed as effect on planktonic growth at 2.73 ug/ml after 20 hrs relative to control; format: functional
# [32] = system: Staphylococcus epidermidis; test: Antibacterial activity against Staphylococcus epidermidis ATCC 35547 assessed as effect on planktonic growth at 87.5 ug/ml after 20 hrs relative to control; format: functional
# Streptococcus mutans [33] = test: Antibacterial activity against Streptococcus mutans ATCC 25175 assessed as effect on planktonic growth at 43.8 ug/ml after 20 hrs relative to control; format: functional
# Pseudomonas aeruginosa [34] = test: Antibacterial activity against Pseudomonas aeruginosa ATCC 27853 assessed as effect on planktonic growth at 0.34 ug/ml after 20 hrs relative to control; format: functional
# Staphylococcus aureus [35] = test: Antibacterial activity against Staphylococcus aureus ATCC 25923 assessed as effect on planktonic growth at 87.5 ug/ml after 20 hrs relative to control; format: functional
# Streptococcus mutans [36] = test: Antibacterial activity against Streptococcus mutans ATCC 25175 assessed as inhibition of biofilm formation at 44 ug/ml after 20 hrs by crystal-violet staining method relative to control; format: functional; settings: ATCC 25175, 20 h
# Pseudomonas aeruginosa [37] = test: Antibacterial activity against Pseudomonas aeruginosa ATCC 27853 assessed as effect on planktonic growth at 5.5 ug/ml after 20 hrs relative to control; format: functional
# [38] = system: Staphylococcus epidermidis; test: Antibacterial activity against Staphylococcus epidermidis ATCC 35547 assessed as effect on planktonic growth at 0.17 ug/ml after 20 hrs relative to control; format: functional
# Pseudomonas aeruginosa [39] = test: Antibacterial activity against Pseudomonas aeruginosa ATCC 27853 assessed as effect on planktonic growth at 10.9 ug/ml after 20 hrs relative to control; format: functional
# Staphylococcus aureus [40] = test: Antibacterial activity against Staphylococcus aureus ATCC 25923 assessed as effect on planktonic growth at 1.37 ug/ml after 20 hrs relative to control; format: functional
# Staphylococcus aureus [41] = test: Antibacterial activity against Staphylococcus aureus ATCC 25923 assessed as effect on planktonic growth at 0.68 ug/ml after 20 hrs relative to control; format: functional
# Streptococcus mutans [42] = test: Antibacterial activity against Streptococcus mutans ATCC 25175 assessed as effect on planktonic growth at 0.68 ug/ml after 20 hrs relative to control; format: functional
# Pseudomonas aeruginosa [43] = test: Antibacterial activity against Pseudomonas aeruginosa ATCC 27853 assessed as inhibition of biofilm formation after 20 hrs by crystal-violet staining method; format: functional, organism-based; settings: for IC50: ATCC 27853, 20 h
structure (smiles),measurement,setting,value
COc1ccc(C)cc1C1=C(Br)C(=O)N(CC(C)C)/C1=C/c1cccc(Cl)c1,Activity,Staphylococcus aureus [1],4.6%
same,Activity,Staphylococcus aureus [2],0%
same,Activity,Streptococcus mutans [3],-32.5%
same,Activity,Staphylococcus aureus [4],1.8%
same,Activity,Pseudomonas aeruginosa [5],29.8%
same,Activity,Staphylococcus aureus [6],0.6%
same,Activity,Pseudomonas aeruginosa [7],-1.3%
same,Activity,Pseudomonas aeruginosa [8],-0.9%
same,Activity,Staphylococcus aureus [9],4.1%
same,Activity,[10],16.6%
same,Activity,Pseudomonas aeruginosa [11],0.3%
same,Activity,Streptococcus mutans [12],-12.4%
same,Activity,[13],16.2%
same,Activity,Pseudomonas aeruginosa [14],-2.3%
same,Activity,[15],8.4%
same,inhibition,[16],Dose-dependent effect
same,IC50,[16],81.4 µg/mL
same,Activity,Streptococcus mutans [17],-6.4%
same,Activity,[18],33.5%
same,Activity,Streptococcus mutans [19],-22.7%
same,Activity,[20],14.3%
same,Activity,Pseudomonas aeruginosa [21],7.8%
same,Activity,Streptococcus mutans [22],-6.8%
same,Activity,Staphylococcus aureus [23],2.9%
same,Activity,Pseudomonas aeruginosa [24],10.5%
same,Activity,[25],18.1%
same,Activity,[26],4.2%
same,Activity,Streptococcus mutans [27],-1.7%
same,Activity,[28],6.3%
same,Activity,Streptococcus mutans [29],-2.3%
same,Activity,Streptococcus mutans [30],-4.9%
same,Activity,Staphylococcus aureus [31],9.2%
same,Activity,[32],39.2%
same,Activity,Streptococcus mutans [33],-28.3%
same,Activity,Pseudomonas aeruginosa [34],-2.2%
same,Activity,Staphylococcus aureus [35],-3.2%
same,inhibition at 44 µg/mL,Streptococcus mutans [36],31.7%
same,Activity,Pseudomonas aeruginosa [37],1.5%
same,Activity,[38],13.9%
same,Activity,Pseudomonas aeruginosa [39],1.8%
same,Activity,Staphylococcus aureus [40],12.5%
same,Activity,Staphylococcus aureus [41],5.8%
same,Activity,Streptococcus mutans [42],-2.3%
same,inhibition,Pseudomonas aeruginosa [43],Dose-dependent effect
same,IC50,Pseudomonas aeruginosa [43],2.4 µg/mL
COc1ccc(Cl)cc1C1=C(Br)C(=O)N(CC(C)C)/C1=C\c1ccccc1Br,Activity,Staphylococcus aureus [1],2.5%
same,Activity,Staphylococcus aureus [2],-1.2%
same,Activity,Streptococcus mutans [3],23.4%
same,Activity,Staphylococcus aureus [4],23.6%
same,Activity,Pseudomonas aeruginosa [5],10%
same,Activity,Staphylococcus aureus [6],7.5%
same,Activity,Pseudomonas aeruginosa [7],-0.1%
same,Activity,Pseudomonas aeruginosa [8],0.4%
same,Activity,Staphylococcus aureus [9],11.2%
same,Activity,[10],2.1%
same,Activity,Pseudomonas aeruginosa [11],-3.1%
same,Activity,Streptococcus mutans [12],-3.3%
same,Activity,[13],-0.2%
same,Activity,Pseudomonas aeruginosa [14],-2.5%
same,Activity,[15],-5.7%
same,inhibition,[16],Dose-dependent effect
same,IC50,[16],> 87.5 µg/mL
same,Activity,Streptococcus mutans [17],-1.6%
same,Activity,[18],13.5%
same,Activity,Streptococcus mutans [19],10.4%
same,Activity,[20],-3.2%
same,Activity,Pseudomonas aeruginosa [21],-9.6%
same,Activity,Streptococcus mutans [22],9.6%
same,Activity,Staphylococcus aureus [23],17.2%
same,Activity,Pseudomonas aeruginosa [24],-6.6%
same,Activity,[25],-6%
same,Activity,[26],-3.8%
same,Activity,Streptococcus mutans [27],12.4%
same,Activity,[28],-5.2%
same,Activity,Streptococcus mutans [29],10.4%
same,Activity,Streptococcus mutans [30],8.5%
same,Activity,Staphylococcus aureus [31],2.7%
same,Activity,[32],6.9%
same,Activity,Streptococcus mutans [33],7.4%
same,Activity,Pseudomonas aeruginosa [34],-4%
same,Activity,Staphylococcus aureus [35],48%
same,Activity,Pseudomonas aeruginosa [37],-5.5%
same,Activity,[38],-2.5%
same,Activity,Pseudomonas aeruginosa [39],-11.5%
same,Activity,Staphylococcus aureus [40],12.4%
same,Activity,Staphylococcus aureus [41],12.2%
same,Activity,Streptococcus mutans [42],11%
same,inhibition,Pseudomonas aeruginosa [43],Dose-dependent effect
same,IC50,Pseudomonas aeruginosa [43],0.7 µg/mL
